# Test results reported in publication PMC6692898 (Chemical research in toxicology, 2019).
# Read-outs that look alike come from different tables or passages of the source.
# Tests used:
# [1] = 1-Naphthaldehyde decay/depletion in human liver microsomes and Supersomes; assay type: in vitro ADME
# [2] = Time-course decay of TBF-A in HLM, control Supersomes and isozyme Supersomes; assay type: in vitro ADME, human
# CYP2C19 = CYP2C19 (Homo sapiens, UniProt P33261); assay: Steady-state kinetics by recombinant CYP2C19 Supersomes; assay type: in vitro ADME
# [3] = cited from earlier work
# [4] = substrate: CN(C/C=C/C#CC(C)(C)C)Cc1cccc2ccccc12; assay: cells, lysate or membranes named; settings: CYP2C19, pH 7.4
# [5] = 50 μM TBF-A, normalized per mg/protein
# [6] = step 2.2a, metabolite 1-naphthyl-methylamine, CYP2C19
# [7] = step 2.2b, metabolite 1-naphthaldehyde, CYP2C19
molecule,measurement,setting,value
O=Cc1cccc2ccccc12 [1-naphthaldehyde],effect of microsomes and NADPH on decay or disappearance,"[1]; 50 μM 1-naphthaldehyde, active or heat-inactivated human liver microsomes, presence or absence of NADPH",not significantly affected
same,depletion in Supersomes compared with human liver microsomes,"[1]; 10 and 50 μM 1-naphthaldehyde, NADPH, CYP2C19 and 3A4 Supersomes, after 30 min",more significant decrease
"CC(C)(C)C#CC=CC=O [TBF-A, 6,6-dimethyl-2-hepten-4-ynal]",end-point plateau for CYP3A4 higher than that of HLM,[2]; 50 μM TBF-A decay,~4 fold
same,end-point plateau of CYP2C19 higher than for both HLM and control Supersomes,[2]; 50 μM TBF-A decay,roughly 2 fold
same,decay faster in HLM compared to CYP2C19 Supersomes,[2]; [5],13%
same,decay faster in HLM compared to CYP3A4 Supersomes,[2]; [5],55%
CC(C)(C)C#C/C=C/CNCc1cccc2ccccc12 [desmethyl-terbinafine],Km higher than the value for terbinafine N-denaphthylation (Pathway 3),CYP2C19; CYP2C19,about 5 fold
same,decrease in N-denaphthylation catalytic efficiency from terbinafine to desmethyl-terbinafine,CYP2C19; CYP2C19,~15 fold
same,higher rate of turnover (Vmax) than for the parent drug,CYP2C19; N-denaphthylation by CYP2C19,about 3 fold
same,efficiency of 1-naphthyl methylamine formation by CYP2C19 relative to 3A4,CYP2C19; Pathway 2.2a,about 3 fold
same,higher Vmax for CYP2C19,"CYP2C19; formation of the desmethyl-terbinafine dihydrodiols, loss of the methyl group",approximately 10 fold
same,Km,"CYP2C19; read-out: Km (affinity), CYP2C19, oxidative nondealkylation reactions",< 100 µM
same,Km,CYP2C19; [6],220 ± 55 µM
same,V/K,CYP2C19; [6],3.7
same,Vmax,CYP2C19; [6],810 ± 92 pmol/min/nmol of protein
same,Km,CYP2C19; [7],150 ± 58 µM
same,V/K,CYP2C19; [7],8.7
same,Vmax,CYP2C19; [7],1300 ± 59 pmol/min/nmol of protein
CN(C/C=C/C#CC(C)(C)C)Cc1cccc2ccccc12 [terbinafine],Km at 30 min,"CYP2C19; human, recombinant CYP2C19 Supersomes, pH 7.4, Km (affinity), CYP2C19, oxidative nondealkylation reactions",< 100 µM
same,time remaining at therapeutic levels in the body after therapy ceases,[3]; due to bioaccumulation,up to a month
same,plasma levels,[3]; reported,1 mg/L
same,protein binding,[3]; reported,> 99%
CYP2C19 (Homo sapiens) (protein) MDPFVVLVLCLSCLLLLSIWRQSSGRGKLPPGPTPLPVIGNILQIDIKDVSKSLTNLSKIYGPVFTLYFGLERMVVLHGYEVVKEALIDLGEEFSGRGHFPLAERANRGFGIVFSNGKRWKEIRRFSLMTLRNFGMGKRSIEDRVQEEARCLVEELRKTKASPCDPTFILGCAPCNVICSIIFQKRFDYKDQQFLNLMEKLNENIRIVSTPWIQICNNFPTIIDYFPGTHNKLLKNLAFMESDILEKVKEHQESMDINNPRDFIDCFLIKMEKEKQNQQSEFTIENLVITAADLLGAGTETTSTTLRYALLLLLKHPEVTAKVQEEIERVIGRNRSPCMQDRGHMPYTDAVVHEVQRYIDLIPTSLPHAVTCDVKFRNYLIPKGTTILTSLTSVLHDNKEFPNPEMFDPRHFLDEGGNFKKSNYFMPFSAGKRICVGEGLARMELFLFLTFILQNFNLKSLIDPKDLDTTPVVNGFASVPPFYQLCFIPV,Km,"[4]; other: step 1.1, metabolite N-methyl-1-naphthyl-methylamine",120 ± 22 µM
same,Km,"[4]; other: step 2.1, metabolite desmethyl-terbinafine",37 ± 6.7 µM
same,Km,"[4]; other: step 3.1, metabolite 1-naphthaldehyde",3.0 ± 0.83 µM
